Source: patent publication US12485114B2, “Materials and methods useful to induce cancer cell death via methuosis or autophagy or a combination thereof” (The University of Toledo, priority 2017, dated 2025)

Key:
Assay in all cases: Morphological assessment of vacuolization
Format in all cases: cell-based
HCT-116 (colon cancer) = tested on: HCT-116 (colon cancer)
Text: The methuophagy inducing activities of BAPT-27 were also prominent in different colon cancer cell lines with different genetic profiles. […] (FIG. 42). However, the vacuoles formation was not prominent in normal epithelial colon cells (CRL-1459). (FIG. 42).

[1] = tested on: BT-20 (triple negative breast cancer)
U-251 (glioblastoma) = tested on: U-251 (glioblastoma)

Measured: vacuolization

Cc1[nH]c2ccccc2c1-c1nn2c(-c3ccncc3)nnc2s1 [BAPT-36]
dose dependent vacuolization: all assays above
